Results: ChEMBL document CHEMBL1126494, “New potent angiotensin II receptor antagonists containing phenylthiophenes and phenylfurans in place of the biphenyl moiety” (Bioorg Med Chem Lett, 1993)

experiment: Compound was tested for inhibition of Angiotensin II receptor in rabbit aorta binding assay

| SMILES | IC50 [nM] |
| --- | --- |
| CCc1nc2c(C)cc(C)nc2n1Cc1ccc(-c2ccccc2-c2nn[nH]n2)s1 | 1000 |
| CCc1nc2c(C)cc(C)nc2n1Cc1ccc(-c2ccsc2-c2nn[nH]n2)cc1 | 2.3 |
| CCc1nc2c(C)cc(C)nc2n1Cc1ccc(-c2cscc2-c2nn[nH]n2)cc1 | 2.4 |
| CCc1nc2c(C)cc(C)nc2n1Cc1ccc(-c2ccoc2-c2nn[nH]n2)cc1 | 23 |
